Consider four molecules from ChEMBL document CHEMBL1122361, “Synthesis and antineoplastic activity of 3'-azido and 3'-amino analogues of pyrimidine deoxyribonucleoside” (1983).

pIC50: −log10 of the molar value. Active and inactive are the calls of the source. The calls are words filed in the database; no cut-off is given here.

Assay [1] concerns L1210. Description: Ability to effect the replication of L1210 cells in vitro. It counts as functional. The settings on record: Mus musculus, read-out: ID50 (the source's name).
Assay [2] can be described thus: Ability to effect the replication of S-180 cells in vitro. It counts as functional. Conditions: Mus musculus, read-out: ID50 (the source's name).
Assay [3] deals with L1210. The assay is described as follows: Ability to effect the replication of L1210 cells in vitro; IN-Inactive. Type of assay: functional, cell-based. The settings on record: Mus musculus.
The test system of a further assay is Mus musculus. Description: Ratio of treated to that of control was determined in mice tested in vivo(on day 31). Type of assay: functional.

In the case of `N[C@H]1C[C@H](n2ccc(=O)[nH]c2=O)O[C@@H]1CO`, the values for the pIC50 (with L1210 [1]; in assay [2]) were 4.74 and 4.30, respectively.

Consider `[N-]=[N+]=N[C@H]1C[C@H](n2ccc(N)nc2=O)O[C@@H]1CO`, for which the ID50 entry in the assay on L1210 [3] was “inactive”.

Take `[N-]=[N+]=N[C@H]1C[C@H](n2ccc(=O)[nH]c2=O)O[C@@H]1CO`: the ID50 result with L1210 [3] was “inactive”.

As a reminder, the T/C is the ratio of treated to control. Consider `Nc1ccn([C@H]2C[C@H](N)[C@@H](CO)O2)c(=O)n1`, for which the pIC50 with L1210 [1] is 6.15; in assay [2] it was 5.40. Also, the T/C with Mus musculus stood at 283%.
